Calls of active or inactive are those of the source.
Experiments:
[1] = biological target: T1, Kappa-type opioid receptor (Homo sapiens, UniProt P41145); test: SAR analysis of small molecule agonists of the kappa opioid receptor via a luminescent beta-arrestin assay - Set 3. [Related pubchem assays (depositor defined):AID1777, AID1785, AID1786, AID1966, AID2133, AID2136, AID2284, AID2500]; type: functional
Mu-type opioid receptor [2] = biological target: T2, Mu-type opioid receptor (Homo sapiens, UniProt P35372); test: MOR agonists by imaging, SAR follow-up, image-based (AID 2352); type: functional
[3] = biological target: T3, Delta-type opioid receptor (Homo sapiens, UniProt P41143); test: DOR agonists, SAR follow-up, image-based (AID 2370); type: functional
[4] = biological target: T1, Kappa-type opioid receptor; test: KOR antagonists by imaging, SAR follow-up, image-based (AID 2348); type: functional
Mu-type opioid receptor [5] = biological target: T2, Mu-type opioid receptor; test: MOR antagonists, SAR follow-up, image-based (AID 2420); type: functional;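 note: compounds added before stimulation of receptor with agonist DAMGO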
[6] = biological target: T1, Kappa-type opioid receptor; test: KOR agonist analogs, imaging readout, SAR follow-up, image-based (AID 2359); type: functional
[7] = biological target: T3, Delta-type opioid receptor; test: DOR antagonists, SAR follow-up, image-based (AID 2357); type: functional
[8] = biological target: T1, Kappa-type opioid receptor; test: kappa opioid receptor blockers, cell-based, luminescence, beta-arrestin, SAR follow-up (AID 2285); type: functional
[9] = biological target: T4, Tyrosine-protein phosphatase non-receptor type 7 (Homo sapiens, UniProt P35236); type: functional
T4 sequence (P35236 whole entry): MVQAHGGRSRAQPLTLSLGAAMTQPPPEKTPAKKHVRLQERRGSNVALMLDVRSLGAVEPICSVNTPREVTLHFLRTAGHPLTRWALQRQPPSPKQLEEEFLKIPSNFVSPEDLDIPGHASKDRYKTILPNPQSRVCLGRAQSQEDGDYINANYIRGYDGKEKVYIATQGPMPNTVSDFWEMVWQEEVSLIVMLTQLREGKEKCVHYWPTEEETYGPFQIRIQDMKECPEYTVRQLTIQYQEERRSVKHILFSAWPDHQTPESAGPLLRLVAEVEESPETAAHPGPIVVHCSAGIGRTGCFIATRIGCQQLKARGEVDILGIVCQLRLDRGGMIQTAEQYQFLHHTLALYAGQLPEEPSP

[10] = biological target: T5, Tyrosine-protein phosphatase non-receptor type 22 (Homo sapiens, UniProt Q9Y2R2); type: functional
T5 sequence (Q9Y2R2 whole entry): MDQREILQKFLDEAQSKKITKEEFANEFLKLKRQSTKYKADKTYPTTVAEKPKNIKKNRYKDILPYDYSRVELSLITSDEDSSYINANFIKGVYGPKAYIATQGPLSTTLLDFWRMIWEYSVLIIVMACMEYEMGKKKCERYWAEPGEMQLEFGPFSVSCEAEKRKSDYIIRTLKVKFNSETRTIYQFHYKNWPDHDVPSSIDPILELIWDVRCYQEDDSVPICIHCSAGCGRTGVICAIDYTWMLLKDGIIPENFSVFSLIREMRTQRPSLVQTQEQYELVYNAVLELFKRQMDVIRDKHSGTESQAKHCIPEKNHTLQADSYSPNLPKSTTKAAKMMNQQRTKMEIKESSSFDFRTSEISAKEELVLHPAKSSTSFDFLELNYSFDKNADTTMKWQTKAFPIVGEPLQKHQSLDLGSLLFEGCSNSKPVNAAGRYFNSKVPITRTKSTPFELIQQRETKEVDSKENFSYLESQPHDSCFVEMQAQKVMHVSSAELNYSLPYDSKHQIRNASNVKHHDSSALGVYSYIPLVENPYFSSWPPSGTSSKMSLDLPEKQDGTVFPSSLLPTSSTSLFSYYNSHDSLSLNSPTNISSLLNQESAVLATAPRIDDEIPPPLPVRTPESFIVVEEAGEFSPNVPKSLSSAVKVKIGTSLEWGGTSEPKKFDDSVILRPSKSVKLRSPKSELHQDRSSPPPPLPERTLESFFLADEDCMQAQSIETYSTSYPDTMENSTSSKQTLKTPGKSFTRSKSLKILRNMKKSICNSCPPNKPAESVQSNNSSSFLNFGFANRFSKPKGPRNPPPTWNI

[11] = biological target: T5, Tyrosine-protein phosphatase non-receptor type 22; type: functional; remark: listed apart in the source
Troponin, cardiac muscle = Troponin, cardiac muscle (Homo sapiens, UniProt P19429+P45379+P63316); test: Fluorescence-based biochemical high throughput dose response assay for activators of the calcium sensitivity of cardiac Regulated Thin Filaments (RTF). [Related pubchem assays (depositor defined):AID493008, AID493018, AID504382, AID504383]; type: protein-complex assay
[12] = biological target: T6, Endoribonuclease toxin MazF (Escherichia coli K-12, UniProt P0AE70); test: MazF toxin RNase activators, dose response, biochemical, fluorescence, single-stranded RNA substrate, uHTS hits (AID 588481); type: functional
T6 sequence (P0AE70 whole entry): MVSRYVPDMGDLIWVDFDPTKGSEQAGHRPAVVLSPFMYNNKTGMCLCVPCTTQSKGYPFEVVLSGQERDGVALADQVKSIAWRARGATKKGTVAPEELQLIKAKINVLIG

[13] = biological target: T6, Endoribonuclease toxin MazF; test: fluorescent RNA oligo signal without MazF, dose response, counter-screen for MazEF activator project, biochemical, fluorescence, single-stranded RNase substrate (AID 588502); type: functional
[14] = biological target: Signal transducer and activator of transcription 3 (Homo sapiens, UniProt P40763); test: STAT3 inhibitors, late-stage profile, late-stage follow-up, cell-based, STAT1 panel, qPCR, cytotoxicity, panel member STAT3 Inhibition (AID 2078)
[15] = biological target: Signal transducer and activator of transcription 1-alpha/beta (Homo sapiens, UniProt P42224); test: STAT3 inhibitors, late-stage profile, late-stage follow-up, cell-based, STAT1 panel, qPCR, cytotoxicity, panel member STAT1 Inhibition (AID 2078)
[16] = biological target: T7, Dual specificity protein phosphatase 3 (Homo sapiens, UniProt P51452); test: VHR1 phosphatase inhibitors, primary screen, biochemical, absorbance, uHTS (AID 1654)
[17] = biological target: T8, Voltage-gated N-type calcium channel alpha-1B subunit/Amyloid beta A4 precursor protein-binding family A member 1 (Homo sapiens, UniProt Q00975+Q02410); type: protein assay
[18] = biological target: T8, Voltage-gated N-type calcium channel alpha-1B subunit/Amyloid beta A4 precursor protein-binding family A member 1; type: protein assay; remark: listed apart in the source
[19] = biological target: T7, Dual specificity protein phosphatase 3; test: VHR1 phosphatase inhibitors, biochemical (AID 1878)
[20] = biological target: T9, Dual specificity protein phosphatase 6 (Rattus norvegicus, UniProt Q64346); test: MKP-3 phosphatase inhibitors, primary screen, biochemical, rat enzyme, in vitro (AID 425)
T9 sequence (Q64346 whole entry): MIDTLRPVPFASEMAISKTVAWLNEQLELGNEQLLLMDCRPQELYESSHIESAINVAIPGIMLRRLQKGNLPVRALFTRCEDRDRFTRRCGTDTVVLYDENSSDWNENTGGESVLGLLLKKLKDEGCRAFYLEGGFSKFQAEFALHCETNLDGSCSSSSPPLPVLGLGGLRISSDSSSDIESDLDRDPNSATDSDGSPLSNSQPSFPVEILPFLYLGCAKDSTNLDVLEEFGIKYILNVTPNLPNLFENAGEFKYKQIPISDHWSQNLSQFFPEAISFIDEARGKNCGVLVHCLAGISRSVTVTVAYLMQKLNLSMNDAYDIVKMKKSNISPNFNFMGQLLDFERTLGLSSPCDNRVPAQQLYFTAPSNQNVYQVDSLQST

[21] = biological target: Induced myeloid leukemia cell differentiation protein Mcl-1 (Homo sapiens, UniProt Q07820); type: functional
[22] = biological target: Eukaryotic translation initiation factor 4E (Mus musculus, UniProt P63073); test: eIF4E–eIF4G protein interaction inhibitors, dose response, biochemical, TR-FRET (AID 855); type: functional;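 note: potency for disrupting eIF4E binding to eIF4GI seen as loss of FRET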
[23] = biological target: T10, G-protein coupled receptor 55 (Homo sapiens, UniProt Q9Y2T6); test: GPR55 agonists via beta-arrestin recruitment, primary screen, imaging, U2OS cells, beta-arrestin-GFP redistribution (AID 1961); type: functional
Cannabinoid receptor 2 [24] = biological target: T11, Cannabinoid receptor 2 (Homo sapiens, UniProt P34972); test: SAR analysis of antagonists of the Cannabinoid Receptor 2 using an Image-Based Assay - Set 2. [Related pubchem assays (depositor defined):AID1961, AID1965]; type: functional
Cannabinoid receptor 2 [25] = biological target: T11, Cannabinoid receptor 2; test: SAR analysis of agonists of the Cannabinoid Receptor 2 using an Image-Based Assay - Set 2. [Related pubchem assays (depositor defined):AID1961, AID1965]; type: functional
[26] = biological target: T10, G-protein coupled receptor 55; test: SAR analysis of selective Agonists of GPR55 using an Image-Based Assay. [Related pubchem assays (depositor defined):AID1961, AID1965]; type: functional
Cannabinoid receptor 1 = Cannabinoid receptor 1 (Homo sapiens, UniProt P21554); test: SAR analysis of antagonists of the Cannabinoid Receptor 1 using an Image-Based Assay. [Related pubchem assays (depositor defined):AID1961, AID1965]; type: functional
[27] = biological target: T12, Runt-related transcription factor 1/Core-binding factor subunit beta (Homo sapiens, UniProt Q01196+Q13951); test: inhibitors of RUNX1 Runt–CBFb-SMMHC binding, primary screen, biochemical, FRET, Cerulean-Runt, Venus-CBFb-SMMHC, uHTS (AID 1434); type: protein assay;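 note: partner is the CBFb-SMMHC leukemia fusion protein rather than wild-type CBFb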
Bcl-2-like protein 10 = biological target: T13, Bcl-2-like protein 10 (Homo sapiens, UniProt Q9HD36); test: displacers of TR3 peptide from Bcl-B, primary screen, selectivity assay for Bfl-1 inhibitor project, biochemical, fluorescence polarization, FITC-TR3 peptide (AID 748);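 note: fluorescence polarization from a fluorescein-labelled TR3 peptide binding purified Bcl-B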
T13 sequence (Q9HD36 whole entry): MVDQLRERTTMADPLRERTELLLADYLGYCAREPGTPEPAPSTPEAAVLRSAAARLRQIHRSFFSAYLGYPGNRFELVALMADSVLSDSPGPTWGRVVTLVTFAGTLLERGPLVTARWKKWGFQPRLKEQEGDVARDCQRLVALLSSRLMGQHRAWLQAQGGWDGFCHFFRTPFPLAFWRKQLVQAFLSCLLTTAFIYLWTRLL

[28] = biological target: T12, Runt-related transcription factor 1/Core-binding factor subunit beta; test: inhibitors of RUNX1 Runt–CBFb-SMMHC binding, biochemical, TR-FRET (AID 1438); type: protein assay
[29] = biological target: Glutathione-S-transferase (Schistosoma japonicum, UniProt Q26513); test: biotin-GST/anti-GST TR-FRET signal inhibitors, dose response, artefact control for Vif-APOBEC3G degradation inhibitor project, biochemical (AID 1117362); type: functional

SMILES: Cc1ccc2nc(O)c(CN(Cc3ccccc3)C(=O)c3ccccn3)cc2c1
- EC50 [1]: 9.25 µM (active)

SMILES: Cc1ccc(C)c(N2CCN(CCCNC(=O)CCn3c(=O)c4cccn4c4cccnc43)CC2)c1
- EC50 (Mu-type opioid receptor [2]): > 32 µM (inactive)
- EC50 [3]: > 32 µM (inactive)
- IC50 [4]: > 32 µM (inactive)
- IC50 (Mu-type opioid receptor [5]): > 32 µM (inactive)
- EC50 [6]: > 32 µM (inactive)
- IC50 [7]: > 32 µM (inactive)
- IC50 [8]: > 10 µM (inactive)

SMILES: Cc1ccc(N=Nc2c(O)n(CN3CCOCC3)c3ccccc23)cc1
- IC50 [9]: > 79.4 µM (inactive)
- IC50 [10]: > 79.4 µM (inactive)
- IC50 [11]: > 79.4 µM (inactive)
- EC50 (Troponin, cardiac muscle): > 71.5 µM (inactive)
- EC50 [12]: 39.4 µM (inactive)
- EC50 [13]: 50.5 µM (inactive)

SMILES: O=C(c1ccccc1)C1CCN(c2ncnc3sc4c(c23)CCCC4)CC1
- IC50 [14]: > 18.6 µM (inactive)
- IC50 [15]: > 55.7 µM (inactive)

SMILES: COc1cc(/C=C2\SC(=O)N(c3ccc(Cl)cc3)C2=O)cc([N+](=O)[O-])c1O
- IC50 [16]: 2.92 µM (active)
- IC50 [17]: > 56.8 µM (not active)
- IC50 [18]: > 50 µM (inactive)
- IC50 [19]: 2.3 µM (active)
- IC50 [20]: > 158 µM (not active)
- IC50 [21]: 3.07 µM (active)
- IC50 [22]: 50 µM (inactive)

SMILES: CN(C)S(=O)(=O)c1ccc(N2CCCC2)c(C(=O)N2CCN(c3ccc([N+](=O)[O-])cc3)CC2)c1
- EC50 [23]: 0.689 µM (active)
- IC50 (Cannabinoid receptor 2 [24]): > 32 µM (inactive)
- EC50 (Cannabinoid receptor 2 [25]): > 32 µM (inactive)
- EC50 [26]: 0.66 µM (active)
- IC50 (Cannabinoid receptor 1): > 32 µM (inactive)

SMILES: CN1CCc2c(sc3c2c(NCc2ccco2)nc2nnnn23)C1
- IC50 [27]: 80 µM (inactive)
- IC50 (Bcl-2-like protein 10): 38.8 µM (active)
- IC50 [28]: 56.3 µM (inactive)
- IC50 [29]: 31.1 µM (active)

Source: ChEMBL document CHEMBL1201862, “PubChem BioAssay data set” (2004)
